The results in this text go back to patent US20120219496A1, “GADOLINIUM-LINKED NANOCLUSTERS” (priority 2009, published 2012).

The data set in a line: R1 relaxivity determination (T1 relaxometry, slope of 1/T1 vs. Gd concentration). Format: physicochemical. As to conditions: 1.41 T (60 MHz), 40° C. The protocol: Instrumentation. Dynamic light scattering (DLS) measurements were performed on a Zetasizer Nano from Malvern Instruments. The scattering angle was held constant at 90°. Microscopy measurements were performed on an Olympus IX 81 motorized inverted fluorescence microscope equipped with an Andor DU897 EMCCD, an X-Cite 120 excitation source (EXFO) and Sutter excitation and emission filter wheels. Image of FITC was acquired using the filter set HQ480/40, HQ535/50, Q505LP. Filter set was purchased from Chroma. Tl-relaxation times were determined using a Bruker mq60 MR relaxometer operating at 1.41 T (60 MHz). ICP-AES was performed by VHG Laboratories (Manchester, N.H.). Transmission electron microscopy (TEM) was performed with a JEOL 2010 electron microscope operated at 80 kV.
To assess the paramagnetic properties of the Gd-conjugated DNCs, the amount of Gd within the sample was determined by inductively coupled plasma atomic emission spectroscopy (ICP-AES). Tl-relaxation times were determined using a Bruker mq60 MR relaxometer operating at 1.41 T (60 MHz) and at 40° C. […] It is likely that only a marginal increase in R1 was observed, despite the larger size of DNCs, due to the “saturation” of ion relaxivity, which has also previously been reported for high generation dendrimers. As a point of comparison, Gd-DTPA was determined to have an R1 of 3.9 mM^−1 s^−1 per Gd.

With `O=C([O-])CN(CCN(CC(=O)[O-])CC(=O)O)CCN(CC(=O)[O-])CC(=O)O.[Gd+3]` [Gd-DTPA], the “R1 relaxivity per Gd” value was 3.9 mM⁻¹ s⁻¹.
